Among the data in paper PMC12227328, “The Enzyme Glucose‐1‐Phosphate Thymidylyltransferase RmlA Plays a Crucial Role in the Pathogenesis of Pectobacterium actinidiae GX1” (Molecular Plant Pathology, 2025) are Kd values, retold here.

Experiment [1] deals with T1, RmlA (glucose-1-phosphate thymidylyltransferase, gene 1774) (Pectobacterium actinidiae, UniProt A0ABW8GFN0).
T1 construct: gene rfbA; intact rmlA cloned from GX1 genomic DNA into pET32a; fusion protein; E. coli ArcticExpress (DE3); FITC-labelled
Kind of experiment: microscale thermophoresis, FITC-labelled RmlA. To be noted: read-out: binding affinity; 50 mM Tris-HCl, 1 mM MgCl2, 0.05% Tween 20, pH 8.0; ligand as disodium salt. A general note: Microscale thermophoresis detects binding through changes in fluorescence in a small temperature gradient.

Experiment [2] deals with T2, RmlA (glucose-1-phosphate thymidylyltransferase, gene 1774) (Pectobacterium actinidiae, UniProt A0ABW8GFN0, G107A/D108A/N109A/G144A/E159A/V170A/E196A).
T2 construct: gene rfbA
To be noted: read-out: binding affinity; 50 mM Tris-HCl, 1 mM MgCl2, 0.05% Tween 20, pH 8.0; ligand as disodium salt.

pKd: −log10 of the molar value.

For the molecule `O=P(O)(O)O[C@H]1O[C@H](CO)[C@@H](O)[C@H](O)[C@H]1O` [G-1-P], the pKd in experiment [1] was 4.13; in experiment [2], 2.05.

For `Cc1cn([C@H]2C[C@H](O)[C@@H](COP(=O)(O)OP(=O)(O)OP(=O)(O)O)O2)c(=O)[nH]c1=O` [dTTP], the pKd is 3.70 in experiment [1] and 2.57 in experiment [2].
